Measurements published in publication PMC4654502, “Early Gelatinase Activity Is Not a Determinant of Long-Term Recovery after Traumatic Brain Injury in the Immature Mouse” (PLoS ONE, 2015).

Tests used:
MMP-9 [1] = experiment: Inhibition constant for MMP-9; assay type: biochemical; conditions: more potent than the parent compound
gelatinase activity = experiment: In situ zymography (DQ-gelatin) of brain sections after TBI at p21; assay type: in vivo, mouse; conditions: 25 mg/kg s.c. at 2, 4, 24 and 48 h post-injury; brains 1 h after last injection
Experimental: (§1) The treatment regime was based upon several considerations. […] Thirdly, we limited treatment to a period of 48 h post-injury in order to minimize potential off-target effects on ongoing brain development processes at this time, given the known roles that these gelatinases play in postnatal synaptic maturation. For acute studies (gelatin zymography and histology) animals were euthanized at 4 hours and for in situ zymography, they were euthanized 1 hour after the last injection. For long-term studies (behavioral and cognitive assessments and histology) animals were euthanized at ~2 months post-injury. Euthanasia was by overdose with 2.5% Avertin i.p. followed by decapitation or cardiac transperfusion as described below.
One hour after the last injection, brains were collected and embedded in optimal cutting temperature medium (OCT, Tissue-Tek, CA). The tissue blocks were cryosectioned at 10μm thickness and subjected to in-situ zymography, as described by Oh et al.. Briefly, the sectioned tissues were stained with DQ-gelatin (Molecular Probes, Inc., OR, USA) to detect gelatinase activity, followed by incubation with DAPI solution to detect nuclei. […]

[2] = test system: controlled cortical impact TBI at p21; experiment: Open field test at adulthood after TBI at p21; assay type: in vivo, male C57Bl/6J mice; conditions: 25 mg/kg s.c. at 2, 4, 24, 48 h post-injury; tested ~2 months post-injury
Experimental: (§2) The controlled cortical impact model of TBI was used as previously described. TBI to the p21 mouse approximates a toddler-aged child, based upon the structural, biochemical and behavioral characteristics of this age. Pups were anaesthetized with 1.25% 2,2,2-tribromoethanol (Avertin; Sigma-Aldrich, St. Louis, MO) in isotonic saline (i.p. bolus at 0.02 mL/g body weight). After craniotomy, mice were subjected to a controlled cortical impact at 4.5 m/s velocity and 1.73 mm depth of penetration, for a sustained depression of 150 ms, using a 3.0 mm convex impactor tip. Mice were maintained on a water-circulating heating pad throughout surgery and recovery. Following impact, the scalp was closed with sutures and each animal administered 0.5 ml of isotonic saline subcutaneously (s.c.) to prevent post-operative dehydration. Sham-operated mice underwent identical surgical procedures, including craniotomy, without receiving the cortical impact. All mice were closely monitored for 1–2 hours post-surgery until return of the righting reflex and full mobilization. Mice were then returned to group-housing, and weighed post-surgery at days 1, 3, and weekly thereafter till the end of the study.
The treatment regime was based upon several considerations. […]
Exploratory behaviors were assessed over a 10 min session in an automated open field arena (40.6 cm x 40.6 cm; Kinder Scientific, Poway, CA). […]

[3] = test system: controlled cortical impact TBI at p21; experiment: Elevated plus maze at adulthood after TBI at p21; assay type: in vivo, male C57Bl/6J mice; conditions: 25 mg/kg s.c. at 2, 4, 24, 48 h post-injury; tested ~2 months post-injury
Experimental: as §2, with “Mice were then returned to group-housing, and weighed post-surgery at days 1, 3, and weekly thereafter till the end of the study.” left out
The elevated plus maze (Kinder Scientific, Poway, CA) assesses anxiety based upon the natural tendency of rodents to avoid the open arms in preference for enclosed areas. […] Times spent in the open versus closed arms was assessed as previously described.

[4] = test system: controlled cortical impact TBI at p21; experiment: Stereological volumes and hippocampal cell counts at adulthood after TBI at p21; assay type: in vivo, male C57Bl/6J mice; conditions: ~2 months post-injury
Experimental: as §2, §1
Upon completion of behavioral and cognitive assessments at ~ 2 months post-injury, anesthetized mice were perfused transcardially with ice-cold saline followed by 4% paraformaldehyde in 0.1M PBS. Collected brains were post-fixed overnight in 4% PFA and then transferred into a 30% sucrose solution for 72 h before being embedded in Neg50^TM (Richard-Allan Scientific, Thermo Fisher Scientific, Fremont, CA). Serial coronal sections spanning the entire cortex were cut at 20 μm or 40 μm (for time points of 48 h or 2 months post-injury, respectively).
An estimation of intact cortical and hippocampal volumes was performed on 40 μm coronal sections stained with cresyl violet, collected at ~ 2 months post-injury. The unbiased Cavalieri method was performed with StereoInvestigator software (MicroBrightField v10.21.1, Williston, VT, USA), using a Nikon E600W microscope configured with a motorized stage, MAC 5000 controller and Retiga 2000R color digital camera (QImaging, Surrey, BC, Canada). Spanning Bregma 1.5 to -3.8 mm, 12–16 sections containing cortex and 7–10 sections containing hippocampus were assessed per brain, using a sampling interval of 8 and a grid size of either 200 μm or 75 μm for cortex and hippocampus, respectively. Measurements were confined to the dorsal hemispheres as previously described using a 2x objective for the cortex and 4x for the hippocampus. The Gundersen mean coefficient of error (m = 1) was maintained ≤0.03 for cortical volume estimates and ≤0.08 for the hippocampus and dentate gyrus (DG). Group means are expressed as estimated volume (mm³). Certain sections were excluded from stereological analyses due to poor tissue integrity, folding or incomplete staining. In these cases, the section was deemed to be ‘missing’ and estimation for this section was calculated from the StereoInvestigator program based upon the adjacent sections. This was permitted for a maximum of 2 non-adjacent sections per brain. […]

[5] = Body weight after surgery at p21; assay type: in vivo, male C57Bl/6J mice; conditions: 25 mg/kg s.c. at 2, 4, 24, 48 h post-injury or sham-operation
Experimental: as §2

MMP-2 = conditions: cited from earlier work
MMP-9 [6] = conditions: cited from earlier work
MMP-9 or MMP-2 = conditions: compared with SB-3CT; cited from earlier work

SMILES: O=S(=O)(CC1CS1)c1ccc(Oc2ccc(O)cc2)cc1 (stereo not shown) [p-OH SB-3CT]
- potency at inhibiting MMP-9 relative to parent compound SB-3CT (MMP-9 [1]): 2.5 fold
- gelatinase activity post-injury (in situ zymography) compared to vehicle control (gelatinase activity): attenuated gelatinase activity
- injury-induced hyperactivity (total distance traveled, open field) [2]: did not ameliorate this hyperactivity
- percentage time spent in the center of the open field (anxiety-like behavior) [2]: neither TBI nor p-OH SB-3CT treatment affected this measure
- time spent in the open arms of the elevated plus maze [3]: not affected by either TBI or p-OH SB-3CT treatment
- contralateral cortical volume ([4]; TBI groups or sham groups compared): did not alter contralateral cortical volumes
- ipsilateral hippocampal volume, TBI mice vs vehicle-treated ([4]; TBI, p = 0.0835): reduced hippocampal volumes, that did not reach statistical significance
- contralateral dentate gyrus volume ([4]; sham and TBI mice): did not affect contralateral DG volume
- contralateral hippocampus volume ([4]; sham or TBI brains): did not affect the contralateral hippocampus volume
- ipsilateral dentate gyrus volume ([4]; sham or TBI groups): no effect of drug treatment
- ipsilateral cortical volume ([4]; sham or injured animals): did not influence ipsilateral cortical volumes
- ipsilateral hippocampal volume, sham mice vs vehicle-treated sham ([4]; sham, p = 0.0669): tended to exhibit larger hippocampal volumes
- animal weight over development [5]: no differences between treatment or injury groups
- Ki (MMP-2): 6 ± 3 nM
- Ki (MMP-9 [6]): 160 ± 80 nM
- residence time (how long the drug is bound to the target MMPs) (MMP-9 or MMP-2): considerably longer than that of SB-3CT
